Measurements from patent publication US11098083B2, “Peptide that regulates fat metabolism and method for regulating fat metabolism” (SHENZHEN INSTITUTES OF ADVANCED TECHNOLOGY, priority 2017, dated 2021).
Values belong to the substance of their own block, whether it stands above or below them. Ends that are not written are not given here.

How the values were obtained:
wild-type C57BL/6 mice = test: gavage of ISAP4, ISAP5, ISAP6: intestinal absorption of fat (olive oil) in normal mice; format: in vivo; details: gavage 2 pmol/g daily one week, day 8 olive oil 200 μl, compared with saline control group, FIG. 9
Description: S410: effects of acute gavage of ISAP4, ISAP5, and ISAP6 on intestinal absorption of fat in normal mice may be studied.
15 male wild-type C57BL/6 mice of 6 weeks old may be divided into 5 groups, 3 in each group. There may be 3 experimental groups, and the mice in the 3 experimental groups may be administered with ISAP4, ISAP5, and ISAP6 at 2 pmol/g of body weight respectively. The mice in two control groups may be gavaged with an equal volume of normal saline daily for one week. On the 8th day of the experiment, 30 minutes after gavage of ISAP4, ISAP5, ISAP6 and normal saline respectively, the mice in the three experimental groups may be gavaged with 200 μl of sterilized olive oil, the mice in one of the control groups may also be intragstrically administered with 200 μl of sterilized olive oil to be a saline control group, and the mice in the other one of the control groups may further be gavaged with 200 μl of normal saline to be a negative control group. After 50 minutes, each mouse may be euthanized using 95% CO2 and dissected to obtain small intestines. The jejunum near the duodenum may be frozen and sliced, stained with oil red O, and counterstained with hematoxylin. An oil red O-positive area may be quantified by the ImageJ software under double-blind conditions and a ratio of the oil red O-positive area to a total area of the intestinal villi may be calculated. Statistical analysis may be performed to compare with the mince in the saline+olive oil group. ***: p<0.001. N=3.
The oil red O-positive area may be quantified by the ImageJ software under double-blind conditions and the ratio of the oil red O-positive area to the total area of the intestinal villi may be calculated. […] Meanwhile, referring to the sequence comparison shown in FIG. 8, it can be seen that SEQ ID NO. 12: PVPYPDPLEP, SEQ ID NO. 15: SVPSPDPLEP, SEQ ID NO. 13: PYPDPLEP and SEQ ID NO. 16: PSPDPLEP are highly similar in sequence, and these sequences may be very conservative in various species. […]

GPRC6A = target: T1, GPRC6A (Homo sapiens, UniProt Q5T6X5); test: internalization of GPRC6A with Cy5-labelled peptides in hGPRC6A-overexpressed Hela cells; format: cell-based; details: 100 nM, 37° C., 30 minutes, confocal microscope, FIG. 6C
T1 construct: expressed in transfected cells; host or cells: Hela cells (transfected with Lipofectamine 2000)
T1 sequence (Q5T6X5 19-926): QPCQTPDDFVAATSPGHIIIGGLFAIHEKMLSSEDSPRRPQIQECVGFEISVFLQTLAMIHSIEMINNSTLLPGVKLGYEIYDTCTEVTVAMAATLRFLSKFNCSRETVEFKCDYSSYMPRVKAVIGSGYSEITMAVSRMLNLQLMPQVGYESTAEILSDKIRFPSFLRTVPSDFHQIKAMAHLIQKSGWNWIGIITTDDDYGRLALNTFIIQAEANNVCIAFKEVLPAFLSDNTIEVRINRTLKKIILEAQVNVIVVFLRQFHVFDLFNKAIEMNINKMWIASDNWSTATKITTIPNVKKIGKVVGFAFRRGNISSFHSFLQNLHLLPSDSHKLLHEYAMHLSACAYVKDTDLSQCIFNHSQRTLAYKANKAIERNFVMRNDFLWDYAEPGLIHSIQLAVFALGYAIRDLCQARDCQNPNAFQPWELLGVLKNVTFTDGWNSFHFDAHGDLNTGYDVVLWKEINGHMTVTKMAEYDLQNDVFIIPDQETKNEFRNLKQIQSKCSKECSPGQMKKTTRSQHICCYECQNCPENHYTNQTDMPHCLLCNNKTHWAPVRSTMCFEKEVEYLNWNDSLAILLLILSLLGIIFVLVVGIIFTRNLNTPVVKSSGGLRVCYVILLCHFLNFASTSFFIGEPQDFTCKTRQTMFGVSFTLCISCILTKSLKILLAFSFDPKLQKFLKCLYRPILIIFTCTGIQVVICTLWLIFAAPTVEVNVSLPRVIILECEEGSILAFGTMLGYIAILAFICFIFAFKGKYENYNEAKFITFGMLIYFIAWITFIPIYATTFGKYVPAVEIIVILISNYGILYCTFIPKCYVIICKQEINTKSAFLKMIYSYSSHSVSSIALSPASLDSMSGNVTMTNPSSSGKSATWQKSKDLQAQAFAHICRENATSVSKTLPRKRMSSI
Description: S230: Cy5-labelled OCN, Cy5-labelled hOCN22, and Cy5-labelled ISAP^2 may promote internalization of GPRC6A in the GPRC6A-overexpressed Hela cells.
The hGPRC6A-expressed Hela cell suspension may be plated at a density of 1.6×10^5/ml into a 24-well tray, and each well of the tray may be pre-placed with a gelatin-coated coverslip. 0.5 mL of media containing the cells may be added into each well, and the cells may be incubating at 37° C. and 5% CO2 for 24 hours. The cells may be starved for 4 h in serum-free media before any treatment, and then 100 nM of Cy5-OCN, 100 nM of Cy5-hOCN22, and 100 nM of Cy5-ISAP2 may be added to each well respectively to incubate with the cells at 37° C. for 30 minutes. The cells may be fixed by polyoxymethylene for 30 minutes. Afterwards, Triton X may be added to incubate with the cells for 10 minutes. The cells may be stained with 4′,6-diamidino-2-phenylindole (DAPI, Sigma) for 10 seconds as per manufacturer's instructions, and observed and photographed by a fluorescence confocal microscope.

HFD mice [1] = test: gavage of peptides in HFD mice: triglyceride in feces, week 7; format: in vivo, C57BL/6 mice; details: gavage 2 pmol/g, feces of week 7, compared with HFD control group, FIG. 7B
Description: Feces of each mouse may be collected in week 7, baked at 60° C. for 3 days to ensure complete dryness. Then, 1 mg of the feces may be collected and soaked in 1 ml of a mixed solution consisting of chloroform and methanol in a ratio of 2:1. The soaked feces may then be disrupted with a tissue homogenizer and centrifuged to obtain a supernatant. The supernatant may be detected for triglyceride by the Roche blood biochemical analyzer. Experimental results are shown in FIG. 7B. **: P<0.01, ***: P<0.001.
(§1) Feces of the mice may be collected in the 7th week of the experiment and baked at 60° C. for 3 days to ensure complete dryness. Then, 1 mg of the feces may be weighed and soaked in 1 ml of a mixed solution containing chloroform and methanol in a ratio of 2:1. The feces with the mixed solution may be disrupted by a tissue homogenizer and centrifuged to obtain a supernatant. The supernatant may be detected for triglyceride by the Roche blood biochemical analyzer.
as §1, with “2:1.The” for “2:1. The”
as §1, with “each mouse” for “the mice”, “experiment,” for “experiment”, “dryness.” for “dryness. Then,”, “in” for “with”

HFD mice [2] = test: gavage of peptides in HFD mice for 7 weeks: body weight; format: in vivo, C57BL/6 mice; details: gavage 2 pmol/g of body weight for 7 weeks, compared with HFD control group, FIG. 7A
Description: Six-week-old male wild-type C57BL/6 mice may be divided into 6 groups, 6 mice in each group. Group #1 may be provided with ND, and groups #2 to #6 may be provided with HFD. Group #2 may be treated as a HFD control group. Groups #3 to #6 may be experimental groups, and mice ingroups #3 to #6 may be gavaged with OCN, ISAP1, ISAP2, and ISAP3 respectively at 2 pmol/g of body weight for 7 weeks. Body weight of each mouse may be monitored and measured once a week.
Six-week-old male wild-type C57BL/6 mice may be divided into 6 groups, 6 in each group. Group #1 may be provided with ND to be a ND control group, and groups #2 to #6 may be provided with HFD. Group #2 may be treated as a HFD control group. Groups #3 to #6 may be treated as experimental groups and may be gavaged with OCN, ISAP1, ISAP2, and ISAP3 respectively at 2 pmol/g of body weight daily for 7 weeks. Body weight may be monitored and measured once a week.
Six-week-old male wild-type C57BL/6 mice may be divided into 6 groups, 6 in each group. Group #1 may be provided with ND to be a ND control group, groups #2 to #6 may be provided with HFD. Group #2 may be treated as a HFD control group. Groups #3 to #6 may be treated as experimental groups, and may be gavaged with OCN, ISAP1, ISAP2, and ISAP3 respectively at 2 pmol/g of body weight daily for 7 weeks. A body weight of each mouse may be monitored and measured once a week.

human GPRC6A (hGPRC6A) = target: T2, human GPRC6A (hGPRC6A) (Homo sapiens, UniProt Q5T6X5); test: fluorescent binding of OCN peptides to cell membranes of Hela cells with hGPRC6A overexpressed; details: cell membranes of Hela cells with hGPRC6A overexpressed, FIG. 6B
T2 construct: expressed in transfected cells; host or cells: Hela cells (transfected with Lipofectamine 2000)
T2 sequence (Q5T6X5 19-926): T1 sequence (Q5T6X5 19-926)
Description: S131: overexpression of hGPRC6A in Hela cells may be established.
1) Cell plating: A Hela cell suspension may be plated at a density of 1.6×10^5 cells/mL into a 6-well tray with 2 mL of DMEM per well, incubating at 37° C. and 5% CO2 for 24 hours.
2) A vector carrying hGPRC6A (pReceiver-M61) may be transfected into the Hela cells for overexpression, using Lipofectamine 2000 (Invitrogen) as per manufacturer's instructions, and media containing the vector may be replaced by normal media 4 hours later.
3) After the transfection, the cells may be cultured in the normal media for another 48 hours, and the normal media may be discarded. The cells attached on a bottom of each well may be washed twice with sterile PBS, and 300 μl of TRIzol solution may be added into each well. Cellular RNAs may be extracted as per RNAiso Plus (TaKaRa) instructions, and after a DNase treatment, may be reversely transcribed into cDNAs using DNAEngine and a SuperScript™ (Invitrogen, Canada) kit. The cDNAs may be used as a template, and real-time monitoring and analysis may be performed to fluorescent PCR products at various time points using a SYBR Green (Light Cycler Roche, Germany) method to detect expression levels of the hGPRC6A. […] The selected cell strain may then be detected for its gene expression by qPCR. […]

Substance: PDPLEP [ISAP6]
- absorption of olive oil in the mice (oil red O-positive area / total area of intestinal villi) (wild-type C57BL/6 mice): effectively reduce the absorption of olive oil

- distribution of Cy5-labelled peptide (internalization) (GPRC6A): distributed inside the cell
Substance: Cy5-ISAP2: Cy-5-labeled SEQ ID NO.2 (ISAP2) (YLYQWLGAPVPYPDPLEP; also: Cy5 label, position not given here; listed as Homo sapiens)

Substance: SVPSPDPLEP [ISAP4]
- absorption of olive oil in the mice (oil red O-positive area / total area of intestinal villi) (wild-type C57BL/6 mice): effectively reduce the absorption of olive oil

Substance: YLYQWLGASVPSPDPLEPR [ISAP3]
- content (level) of triglyceride in the feces (HFD mice [1]): significantly increased
- body weight (HFD mice [2]): significant weight loss

Substance: PSPDPLEP [ISAP5]
- absorption of olive oil in the mice (oil red O-positive area / total area of intestinal villi) (wild-type C57BL/6 mice): effectively reduce the absorption of olive oil

- distribution of Cy5-labelled peptide (internalization) (GPRC6A): distributed inside the cell
Substance: Cy5-OCN: Cy-5-labeled OCN (osteocalcin protein) (YLYQWLGAPVPYPDPLEPRREVCELNPDCDELADHIGFQEAYRRFYGPV; ends and bridges not checked; also: Cy5 label, position not given here; UniProt P02818 52-100, looked up) [reference compound]

- ability of binding with cell membranes, compared with hOCN (human GPRC6A (hGPRC6A)): consistent with that of hOCN
Substance: YLYQWLGASVPSPDPLEP [ISAP2]
- content (level) of triglyceride in the feces (HFD mice [1]): significantly increased
- body weight (HFD mice [2]): significant weight loss
